We go through 23 compounds from patent publication US10865208B2, “ATG7 inhibitors and the uses thereof” (Millennium Pharmaceuticals, Inc., priority 2016, dated 2020).

The IC50 is the concentration that inhibits the measured activity by half. Broadly, the inhibition is the drop in the measured response relative to a control, in per cent.

The test concerns the target recombinant human His-ATG7 enzyme (Homo sapiens (Human), UniProt O95352). Briefly: ATG7 Enzyme Assay (HTRF/FRET, ATG3-GST and Flag-Gabarap). Type of test: biochemical. The settings on record: for inhibition at 0.111 µM: Concentration 0.111 μM; for inhibition at 0.111 µM / inhibition at 0.123 µM / inhibition at 0.069 µM: read-out: Percent Inhibition; for inhibition at 0.123 µM: Concentration 0.123 μM; for inhibition at 0.069 µM: Concentration 0.069 μM. Summed up: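 0.15 nM His-ATG7 was reacted with 5 nM ATG3-GST, 5 nM Flag-Gabarap and 10 μM ATP in HEPES pH 7.5 containing MgCl2, GSH and TCEP for 105 min at 24° C, then stopped with EDTA/KF. Eu-anti-Flag and anti-GST-APC HTRF was read after 2 h. Results are given as single-concentration % inhibition or IC50.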
Background: TR-FRET usually uses a lanthanide donor and a delayed reading to cut background.

Chain of recombinant human His-ATG7 enzyme (O95352 whole entry): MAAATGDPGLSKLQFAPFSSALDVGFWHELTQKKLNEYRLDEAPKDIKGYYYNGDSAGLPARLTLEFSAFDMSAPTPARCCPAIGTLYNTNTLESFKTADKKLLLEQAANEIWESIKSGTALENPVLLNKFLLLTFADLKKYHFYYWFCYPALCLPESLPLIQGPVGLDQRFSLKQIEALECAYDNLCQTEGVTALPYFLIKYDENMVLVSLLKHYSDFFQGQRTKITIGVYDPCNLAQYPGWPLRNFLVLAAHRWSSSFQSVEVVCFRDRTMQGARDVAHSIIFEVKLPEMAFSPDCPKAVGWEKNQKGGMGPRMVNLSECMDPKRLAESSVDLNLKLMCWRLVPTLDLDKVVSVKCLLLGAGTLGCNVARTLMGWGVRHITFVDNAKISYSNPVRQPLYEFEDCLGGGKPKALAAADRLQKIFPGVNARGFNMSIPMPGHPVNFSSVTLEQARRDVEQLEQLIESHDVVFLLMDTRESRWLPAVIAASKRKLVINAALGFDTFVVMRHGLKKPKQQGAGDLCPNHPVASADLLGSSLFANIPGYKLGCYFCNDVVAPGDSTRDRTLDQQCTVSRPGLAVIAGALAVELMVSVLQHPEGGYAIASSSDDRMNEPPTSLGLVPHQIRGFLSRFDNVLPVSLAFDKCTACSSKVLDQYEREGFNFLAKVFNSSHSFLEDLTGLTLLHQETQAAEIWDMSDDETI

Consider `Cn1cnc(Sc2nn([C@@H]3O[C@H](COS(N)(=O)=O)[C@@H](O)[C@@H]3F)c3ncnc(N)c23)c1` [Compound I-137, [(2R,3R,4S,5R)-5-{4-amino-3-[(1-methyl-1H-imidazol-4-yl)sulfanyl]-1H-pyrazolo[3,4-d]pyrimidin-1-yl}-4-fluoro-3-hydroxytetrahydrofuran-2-yl]methyl sulfamate], for which the IC50 lay in the range of 20 to 50 nM and the inhibition at 0.111 µM came to 80%.

In the case of `CCC(C)Sc1nn([C@@H]2O[C@H](COS(N)(=O)=O)[C@@H](O)[C@@H]2F)c2ncnc(N)c12` (mixture of isomers) [Compound I-136, [(2R,3R,4S,5R)-5-{4-amino-3-[(2R)-butan-2-ylsulfanyl]-1H-pyrazolo[3,4-d]pyrimidin-1-yl}-4-fluoro-3-hydroxytetrahydrofuran-2-yl]methyl sulfamate and [(2R,3R,4S,5R)-5-{4-amino-3-[(2S)-butan-2-ylsulfanyl]-1H-pyrazolo[3,4-d]pyrimidin-1-yl}-4-fluoro-3-hydroxytetrahydrofuran-2-yl]methyl sulfamate], the half-maximal inhibitory concentration (IC50) was 20 to 50 nM and the inhibition at 0.111 µM is 69%.

On to `Cc1nn([C@H]2C[C@H](O)[C@H](COS(N)(=O)=O)O2)c2ncnc(N)c12` [Compound I-218, [(2S,3S,5R)-5-(4-amino-3-methyl-1H-pyrazolo[3,4-d]pyrimidin-1-yl)-3-hydroxytetrahydrofuran-2-yl]methyl Sulfamate], for which the IC50 was over 500 nM and the inhibition at 0.111 µM was 8%.

Regarding `CC1OCCC1Sc1nn([C@@H]2O[C@H](COS(N)(=O)=O)[C@@H](O)[C@H]2O)c2ncnc(N)c12` (stereo partly shown) [Compound I-92], the IC50 is 100 to 500 nM and the inhibition at 0.123 µM was determined as 50%.

Regarding `Cc1ccc(Sc2nn([C@H]3C[C@H](O)[C@@H](COS(N)(=O)=O)O3)c3ncnc(N)c23)cc1C` [Compound I-196, [(2R,3S,5R)-5-{4-amino-3-[(3,4-dimethylphenyl)sulfanyl]-1H-pyrazolo[3,4-d]pyrimidin-1-yl}-3-hydroxytetrahydrofuran-2-yl]methyl sulfamate], the IC50 was 50 to 100 nM and the inhibition at 0.111 µM is 65%.

Turning to `NCc1nn([C@@H]2O[C@H](COS(N)(=O)=O)[C@@H](O)[C@H]2O)c2ncnc(N)c12` [Compound I-15, {(2R,3S,4R,5R)-5-[4-amino-3-(aminomethyl)-1H-pyrazolo[3,4-d]pyrimidin-1-yl]-3,4-dihydroxytetrahydrofuran-2-yl}methyl Sulfamate], the IC50 was over 500 nM and the inhibition at 0.069 µM was determined as 16%.

For the compound `Nc1ncnc2c1c(SCCO)nn2[C@H]1C[C@H](O)[C@@H](COS(N)(=O)=O)O1` [Compound I-162, [(2R,3S,5R)-5-{4-amino-3-[(2-hydroxyethyl)sulfanyl]-1H-pyrazolo[3,4-d]pyrimidin-1-yl}-3-hydroxytetrahydrofuran-2-yl]methyl Sulfamate], the IC50 is 100 to 500 nM and the inhibition at 0.111 µM turned out to be 50%.

Consider `Nc1ncnc2c1c(Sc1ccccn1)nn2[C@@H]1O[C@H](COS(N)(=O)=O)[C@@H](O)[C@@H]1F` [Compound I-113, {(2R,3R,4S,5R)-5-[4-amino-3-(pyridin-2-ylsulfanyl)-1H-pyrazolo[3,4-d]pyrimidin-1-yl]-4-fluoro-3-hydroxytetrahydrofuran-2-yl}methyl sulfamate], for which the IC50 was under 20 nM and the inhibition at 0.111 µM turned out to be 89%.

Turning to `Nc1ncnc2c1c(Sc1ccc3c(c1)CCC3)nn2[C@H]1C[C@H](O)[C@H](COS(N)(=O)=O)O1` [Compound I-216, {(2S,3S,5R)-5-[4-amino-3-(2,3-dihydro-1H-inden-5-ylsulfanyl)-1H-pyrazolo[3,4-d]pyrimidin-1-yl]-3-hydroxytetrahydrofuran-2-yl}methyl sulfamate], the IC50 was in the range of 100 to 500 nM and the inhibition at 0.111 µM was 41%.

On to `Nc1ncnc2c1c(-c1ccn[nH]1)nn2[C@@H]1O[C@H](COS(N)(=O)=O)[C@@H](O)[C@H]1O` [Compound I-68, {(2R,3S,4R,5R)-5-[4-amino-3-(1H-pyrazol-5-yl)-1H-pyrazolo[3,4-d]pyrimidin-1-yl]-3,4-dihydroxytetrahydrofuran-2-yl}methyl sulfamate], for which the IC50 is over 500 nM and the inhibition at 0.123 µM amounted to 10%.

Consider `COc1nn([C@H]2C[C@H](O)[C@H](COS(N)(=O)=O)O2)c2ncnc(N)c12` [Compound I-225, [(2S,3S,5R)-5-(4-amino-3-methoxy-1H-pyrazolo[3,4-d]pyrimidin-1-yl)-3-hydroxytetrahydrofuran-2-yl]methyl sulfamate], for which the IC50 is over 500 nM and the inhibition at 0.111 µM was 10%.

With `C=CCOc1nn([C@@H]2O[C@H](COS(N)(=O)=O)[C@@H](O)[C@H]2O)c2ncnc(N)c12` [Compound I-71, {(2R,3S,4R,5R)-5-[3-(allyloxy)-4-amino-1H-pyrazolo[3,4-d]pyrimidin-1-yl]-3,4-dihydroxytetrahydrofuran-2-yl}methyl Sulfamate], the IC50 lay within 100 to 500 nM and the inhibition at 0.123 µM was found to be 38%.

With `CC#Cc1nn([C@@H]2O[C@H](COS(N)(=O)=O)[C@@H](O)[C@H]2O)c2ncnc(N)c12` [Compound I-14, {(2R,3S,4R,5R)-5-[4-amino-3-(prop-1-yn-1-yl)-1H-pyrazolo[3,4-d]pyrimidin-1-yl]-3,4-dihydroxytetrahydrofuran-2-yl}methyl Sulfamate], the IC50 was 100 to 500 nM and the inhibition at 0.069 µM amounted to 17%.

As for `Nc1ncnc2c1c(SC1CCC1)nn2[C@@H]1O[C@H](COS(N)(=O)=O)[C@@H](O)[C@@H]1F` [Compound I-147, {(2R,3R,4S,5R)-5-[4-amino-3-(cyclobutylsulfanyl)-1H-pyrazolo[3,4-d]pyrimidin-1-yl]-4-fluoro-3-hydroxytetrahydrofuran-2-yl}methyl sulfamate], the IC50 is under 20 nM and the inhibition at 0.111 µM turned out to be 89%.

Take `COC(C)c1nn([C@@H]2O[C@H](COS(N)(=O)=O)[C@@H](O)[C@H]2O)c2ncnc(N)c12` (mixture of isomers) [Compound I-22, [(2R,3S,4R,5R)-5-{4-amino-3-[(1R)-1-methoxyethyl]-1H-pyrazolo[3,4-d]pyrimidin-1-yl}-3,4-dihydroxytetrahydrofuran-2-yl]methyl Sulfamate and [(2R,3S,4R,5R)-5-{4-amino-3-[(1S)-1-methoxyethyl]-1H-pyrazolo[3,4-d]pyrimidin-1-yl}-3,4-dihydroxytetrahydrofuran-2-yl]methyl Sulfamate]: the IC50 is over 500 nM and the inhibition at 0.123 µM stood at 5%.

As to `Nc1ncnc2c1c(SCC(F)(F)F)nn2[C@@H]1O[C@H](COS(N)(=O)=O)[C@@H](O)[C@H]1O` [Compound I-83, [(2R,3S,4R,5R)-5-{4-amino-3-[(2,2,2-trifluoroethyl)sulfanyl]-1H-pyrazolo[3,4-d]pyrimidin-1-yl}-3,4-dihydroxytetrahydrofuran-2-yl]methyl sulfamate], the half-inhibitory concentration (IC50) fell in the range of 20 to 50 nM and the inhibition at 0.123 µM was 82%.

For the compound `Cc1ccc(Sc2nn([C@H]3C[C@H](O)[C@@H](COS(N)(=O)=O)O3)c3ncnc(N)c23)cc1` [Compound I-193, [(2R,3S,5R)-5-{4-amino-3-[(4-methylphenyl)sulfanyl]-1H-pyrazolo[3,4-d]pyrimidin-1-yl}-3-hydroxytetrahydrofuran-2-yl]methyl sulfamate], the concentration for half-maximal inhibition (IC50) was in the range of 100 to 500 nM and the inhibition at 0.111 µM stood at 46%.

Regarding `CCSc1nn([C@@H]2O[C@H](COS(N)(=O)=O)[C@@H](O)[C@H]2O)c2ncnc(N)c12` [Compound I-51, {(2R,3S,4R,5R)-5-[4-amino-3-(ethylsulfanyl)-1H-pyrazolo[3,4-d]pyrimidin-1-yl]-3,4-dihydroxytetrahydrofuran-2-yl}methyl sulfamate], the IC50 lay within 20 to 50 nM and the inhibition at 0.123 µM amounted to 85%.

Regarding `Nc1ncnc2c1c(Sc1ccc3ccccc3c1)nn2[C@H]1C[C@H](O)[C@@H](COS(N)(=O)=O)O1` [Compound I-166, {(2R,3S,5R)-5-[4-amino-3-(2-naphthylsulfanyl)-1H-pyrazolo[3,4-d]pyrimidin-1-yl]-3-hydroxytetrahydrofuran-2-yl}methyl sulfamate], the IC50 lay within 100 to 500 nM and the inhibition at 0.111 µM was 50%.

Take `CCc1nn([C@@H]2O[C@H](COS(N)(=O)=O)[C@@H](O)[C@H]2O)c2ncnc(N)c12` [Compound I-6, [(2R,3S,4R,5R)-5-(4-amino-3-ethyl-1H-pyrazolo[3,4-d]pyrimidin-1-yl)-3,4-dihydroxytetrahydrofuran-2-yl]methyl Sulfamate]: the concentration for half-maximal inhibition (IC50) is 100 to 500 nM and the inhibition at 0.069 µM was 31%.

For the compound `Nc1ncnc2c1c(Sc1cccc(Cl)c1)nn2[C@H]1C[C@H](O)[C@@H](COS(N)(=O)=O)O1` [Compound I-179, [(2R,3S,5R)-5-{4-amino-3-[(3-chlorophenyl)sulfanyl]-1H-pyrazolo[3,4-d]pyrimidin-1-yl}-3-hydroxytetrahydrofuran-2-yl]methyl sulfamate], the IC50 lay within 100 to 500 nM and the inhibition at 0.111 µM stood at 50%.

Take `Nc1ncnc2c1c(SCc1ccccc1)nn2[C@@H]1O[C@H](COS(N)(=O)=O)[C@@H](O)[C@@H]1F` [Compound I-155, {(2R,3R,4S,5R)-5-[4-amino-3-(benzylsulfanyl)-1H-pyrazolo[3,4-d]pyrimidin-1-yl]-4-fluoro-3-hydroxytetrahydrofuran-2-yl}methyl sulfamate]: the half-inhibitory concentration (IC50) is 20 to 50 nM and the inhibition at 0.123 µM is 75%.

Take `Cn1ccnc1CSc1nn([C@@H]2O[C@H](COS(N)(=O)=O)[C@@H](O)[C@@H]2F)c2ncnc(N)c12` [Compound I-112, [(2R,3R,4S,5R)-5-(4-amino-3-{[(1-methyl-1H-imidazol-2-yl)methyl]sulfanyl}-1H-pyrazolo[3,4-d]pyrimidin-1-yl)-4-fluoro-3-hydroxytetrahydrofuran-2-yl]methyl sulfamate]: the IC50 is 100 to 500 nM and the inhibition at 0.111 µM stood at 44%.
